Results reported in US20250101041A1, “POSITIVE ALLOSTERIC MODULATORS OF THE MUSCARINIC ACETYLCHOLINE RECEPTOR M4” (Vanderbilt University, priority 2022, published 2025).

Target: T1, human mAChR M4 (Homo sapiens, UniProt P08173)
T1 construct: expressed in transfected cells; host or cells: CHO-K1 (American Type Culture Collection), stably expressing hM4 and Gqi5
T1 sequence (P08173 1-479): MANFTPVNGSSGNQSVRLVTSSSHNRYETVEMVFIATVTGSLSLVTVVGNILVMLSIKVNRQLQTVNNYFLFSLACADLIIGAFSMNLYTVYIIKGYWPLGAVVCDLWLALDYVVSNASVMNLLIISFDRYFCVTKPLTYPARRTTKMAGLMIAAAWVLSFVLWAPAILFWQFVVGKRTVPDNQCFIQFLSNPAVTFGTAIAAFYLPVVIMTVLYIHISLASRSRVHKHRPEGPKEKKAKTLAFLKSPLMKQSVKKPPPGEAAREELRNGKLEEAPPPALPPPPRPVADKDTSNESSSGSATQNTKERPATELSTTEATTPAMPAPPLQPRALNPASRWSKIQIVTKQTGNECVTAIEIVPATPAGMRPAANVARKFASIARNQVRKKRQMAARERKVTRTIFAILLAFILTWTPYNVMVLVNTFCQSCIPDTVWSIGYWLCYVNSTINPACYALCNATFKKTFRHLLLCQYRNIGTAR
Assay: mAChR M4 cell-based functional assay: calcium mobilization (Fluo-4, FDSS), potentiation of EC20 acetylcholine response in hM4-Gqi5 CHO-K1 cells
Conditions: human M4; for Emax at 30 µM: CHO-K1, % ACh maximum at 30 μM; for EC50: potentiation of EC20 acetylcholine response, calcium mobilization
In short: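 CHO-K1 cells stably co-expressing human M4 and chimeric Gqi5, loaded with Fluo-4 AM (50 min, 37 °C). Compounds in 11-point 1:3 series added first; EC20 acetylcholine added at 144 s and again at 230 s. Calcium read on FDSS at 1 Hz; EC50 and Emax from four-parameter logistic fit of potentiated EC20 response.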

| Emax at 30 µM | EC50 | Compound |
| --- | --- | --- |
| 63% | 271 nM | Cc1nc(-c2cnc3c(c2)CN(c2nn4c(=O)ccnc4cc2C)CC3)cs1 [Compound 1-389, 8-methyl-7-(3-(2-methylthiazol-4-yl)-7,8-dihydro-1,6-naphthyridin-6(5H)-yl)-4H-pyrimido[1,2-b] pyridazin-4-one] |
| 79% | 149 nM | Cc1ccc(-c2cnc3c(c2)CN(c2nn4c(=O)cc(C(=O)NC5(C#N)CC5)nc4cc2C)CC3)cn1 [Compound 1-76, N-(1-cyanocyclopropyl)-8-methyl-7-(3-(6-methylpyridin-3-yl)-7,8-dihydro-1,6-naphthyridin-6(5H)-yl)-4-oxo-4H-pyrimido[1,2-b]pyridazine-2-carboxamide] |
| 84% | 358 nM | Cc1cc2nccc(=O)n2nc1N1CCc2ncc(-c3cccnc3)cc2C1 [Compound 1-68, 8-methyl-7-(3-(pyridin-3-yl)-7,8-dihydro-1,6-naphthyridin-6(5H)-yl)-4H-pyrimido[1,2-b]pyridazin-4-one] |
| 84% | 348 nM | COc1ccc(-c2cnc3c(c2)CN(c2nn4c(=O)ccnc4cc2C)CC3)c(C)n1 [Compound 1-426, 7-(3-(6-methoxy-2-methylpyridin-3-yl)-7,8-dihydro-1,6-naphthyridin-6(5H)-yl)-8-methyl-4H-pyrimido[1,2-b]pyridazin-4-one] |
| 80% | 305 nM | Cc1cncc(-c2cnc3c(c2)CN(c2nn4c(=O)ccnc4c(C)c2C)CC3)c1 [Compound 1-147, 8,9-dimethyl-7-(3-(5-methylpyridin-3-yl)-7,8-dihydro-1,6-naphthyridin-6(5H)-yl)-4H-pyrimido[1,2-b]pyridazin-4-one] |
| 84% | 448 nM | Cc1cc(=O)n2nc(N3CCc4ncc(-c5ccc(F)cc5C)cc4C3)c(C)c(C)c2n1 [Compound 1-274, 7-(3-(4-fluoro-2-methylphenyl)-7,8-dihydro-1,6-naphthyridin-6(5H)-yl)-2,8,9-trimethyl-4H-pyrimido[1,2-b]pyridazin-4-one] |
| 99% | 1750 nM | COCc1cc(=O)n2nc(N3CCc4ncc(-c5cnc(OC)cc5C)cc4C3)c(C)c(C)c2n1 [Compound 1-262, 7-(3-(6-methoxy-4-methylpyridin-3-yl)-7,8-dihydro-1,6-naphthyridin-6(5H)-yl)-2-(methoxymethyl)-8,9-dimethyl-4H-pyrimido[1,2-b]pyridazin-4-one] |
| 87% | 769 nM | Cc1cc(=O)n2nc(N3CCc4ncc(-c5cccnc5F)cc4C3)c(C)cc2n1 [Compound 1-69, 7-(3-(2-fluoropyridin-3-yl)-7,8-dihydro-1,6-naphthyridin-6(5H)-yl)-2,8-dimethyl-4H-pyrimido[1,2-b]pyridazin-4-one] |
| 84% | 8090 nM | Cc1cc(=O)n2nc(N3CCc4ncc(-c5ccc(C(F)(F)F)nc5)cc4C3)c(C)c(C)c2n1 [Compound 1-130, 2,8,9-trimethyl-7-(3-(6-(trifluoromethyl)pyridin-3-yl)-7,8-dihydro-1,6-naphthyridin-6(5H)-yl)-4H-pyrimido[1,2-b]pyridazin-4-one] |
| 97% | 47 nM | Cc1cc2nccc(=O)n2nc1N1CCc2ncc(Nc3cccc(C#N)c3)cc2C1 [Compound 2-80, 3-((6-(8-methyl-4-oxo-4H-pyrimido[1,2-b]pyridazin-7-yl)-5,6,7,8-tetrahydro-1,6-naphthyridin-3-yl)amino)benzonitrile] |
| 82% | 158 nM | Cc1c(N2CCc3ncc(-c4cccs4)cc3C2)nn2c(=O)cc(C(F)F)nc2c1C [Compound 1-312, 2-(difluoromethyl)-8,9-dimethyl-7-(3-(thiophen-2-yl)-7,8-dihydro-1,6-naphthyridin-6(5H)-yl)-4H-pyrimido[1,2-b]pyridazin-4-one] |
| 71% |  | Cc1cc2nccc(=O)n2nc1N1CCc2ncc(NC(=O)C3CC(F)(F)C3)cc2C1 [Compound 2-120, 3,3-difluoro-N-(6-(8-methyl-4-oxo-4H-pyrimido[1,2-b]pyridazin-7-yl)-5,6,7,8-tetrahydro-1,6-naphthyridin-3-yl)cyclobutane-1-carboxamide] |
| 90% | 238 nM | Cc1cc2nccc(=O)n2nc1N1CCc2ncc(-c3ccccc3C(F)F)cc2C1 [Compound 1-434, 7-(3-(2-(difluoromethyl)phenyl)-7,8-dihydro-1,6-naphthyridin-6(5H)-yl)-8-methyl-4H-pyrimido[1,2-b]pyridazin-4-one] |
| 69% | 127 nM | Cc1ccc(-c2cnc3c(c2)CN(c2nn4c(=O)cc(C)nc4cc2C)CC3)cn1 [Compound 1-30, 2,8-dimethyl-7-(3-(6-methylpyridin-3-yl)-7,8-dihydro-1,6-naphthyridin-6(5H)-yl)-4H-pyrimido[1,2-b]pyridazin-4-one] |
| 56% | 985 nM | COc1ccnc(Nc2cnc3c(c2)CN(c2nn4c(=O)ccnc4cc2C)CC3)n1 [Compound 2-140, 7-(3-((4-methoxypyrimidin-2-yl)amino)-7,8-dihydro-1,6-naphthyridin-6(5H)-yl)-8-methyl-4H-pyrimido[1,2-b]pyridazin-4-one] |
| 61% | 2180 nM | Cc1cc2nccc(=O)n2nc1N1CCc2ncc(-c3cn(C)nn3)cc2C1 [Compound 1-321, 8-methyl-7-(3-(1-methyl-1H-1,2,3-triazol-4-yl)-7,8-dihydro-1,6-naphthyridin-6(5H)-yl)-4H-pyrimido[1,2-b]pyridazin-4-one] |
| 79% | 380 nM | COc1ccc(-c2cnc3c(c2)CN(c2nn4c(=O)cc(C)nc4cc2C)CC3)cc1F [Compound 1-216, 7-(3-(3-fluoro-4-methoxyphenyl)-7,8-dihydro-1,6-naphthyridin-6(5H)-yl)-2,8-dimethyl-4H-pyrimido[1,2-b]pyridazin-4-one] |
| 97% | 626 nM | Cc1ccc(-c2cnc3c(c2)CN(c2nn4c(=O)cc(C)nc4c(C)c2C)CC3)cc1 [Compound 1-135, 2,8,9-trimethyl-7-(3-(p-tolyl)-7,8-dihydro-1,6-naphthyridin-6(5H)-yl)-4H-pyrimido[1,2-b]pyridazin-4-one] |
| 72% | 3450 nM | Cc1cc(F)cnc1-c1cnc2c(c1)CN(c1nn3c(=O)ccnc3cc1C)CC2 [Compound 1-350, 7-(3-(5-fluoro-3-methylpyridin-2-yl)-7,8-dihydro-1,6-naphthyridin-6(5H)-yl)-8-methyl-4H-pyrimido[1,2-b]pyridazin-4-one] |
| 70% | 631 nM | Cc1cc(F)c(F)c(-c2cnc3c(c2)CN(c2nn4c(=O)cc(C)nc4cc2C)CC3)c1 [Compound 1-252, 7-(3-(2,3-difluoro-5-methylphenyl)-7,8-dihydro-1,6-naphthyridin-6(5H)-yl)-2,8-dimethyl-4H-pyrimido[1,2-b]pyridazin-4-one] |
| 90% | 99 nM | Cc1cc(F)ccc1Nc1cnc2c(c1)CN(c1nn3c(=O)ccnc3cc1C)CC2 [Compound 2-65, 7-(3-((4-fluoro-2-methylphenyl)amino)-7,8-dihydro-1,6-naphthyridin-6(5H)-yl)-8-methyl-4H-pyrimido[1,2-b]pyridazin-4-one] |
| 94% | 251 nM | Cc1c(N2CCc3ncc(-c4ccnnc4)cc3C2)nn2c(=O)cc(C(F)F)nc2c1C [Compound 1-158, 2-(difluoromethyl)-8,9-dimethyl-7-(3-(pyridazin-4-yl)-7,8-dihydro-1,6-naphthyridin-6(5H)-yl)-4H-pyrimido[1,2-b]pyridazin-4-one] |
| 79% | 612 nM | Cc1cc(=O)n2nc(N3CCc4ncc(-c5cc(F)nc(F)c5)cc4C3)c(C)cc2n1 [Compound 1-242, 7-(3-(2,6-difluoropyridin-4-yl)-7,8-dihydro-1,6-naphthyridin-6(5H)-yl)-2,8-dimethyl-4H-pyrimido[1,2-b]pyridazin-4-one] |
| 96% | 822 nM | Cc1c(N2CCc3ncc(N4C[C@@H](C)O[C@@H](C)C4)cc3C2)nn2c(=O)cc(C(F)F)nc2c1C [Compound 2-41, 2-(difluoromethyl)-7-(3-((2R,6S)-2,6-dimethylmorpholino)-7,8-dihydro-1,6-naphthyridin-6(5H)-yl)-8,9-dimethyl-4H-pyrimido[1,2-b]pyridazin-4-one] |
| 52% | 296 nM | Cc1cc(=O)n2nc(N3CCc4ncc(-c5ccccc5OC(C)C)cc4C3)c(C)c(C)c2n1 [Compound 1-280, 7-(3-(2-isopropoxyphenyl)-7,8-dihydro-1,6-naphthyridin-6(5H)-yl)-2,8,9-trimethyl-4H-pyrimido[1,2-b]pyridazin-4-one] |
| 80% | 1270 nM | Cc1cc2nccc(=O)n2nc1N1CCc2ncc(N3CCOC(c4cccnc4)C3)cc2C1 (stereo not drawn) [Compound 2-77, 8-methyl-7-(3-(2-(pyridin-3-yl)morpholino)-7,8-dihydro-1,6-naphthyridin-6(5H)-yl)-4H-pyrimido[1,2-b]pyridazin-4-one] |
